Measured values: article PMC11407758, “Integrated stress response (ISR) activation and apoptosis through HRI kinase by PG3 and other p53 pathway-restoring cancer therapeutics” (Oncotarget, 2024)

Legend:
HCT116 (P53−/−) = test: Cell viability assay (CellTiterGlo), HCT116 p53-/-; type: cell-based, human; settings: for IC50: 72 h, CellTiterGlo
Method: (§1) Figure 1 PG3 inhibits cell proliferation and growth in a p53-indepent manner. (A–E) Cell viability assay, dose response curves and IC50 value measurements in a panel of cancer cell lines and normal cells. Cells were treated with different concentrations of PG3, PG3-Oc (Oc), obatoclax (Ob), prodigiosin (P) or DMSO for 72 h. Luciferase activity was imaged by the IVIS Imaging System after treatment. Cell viability data were normalized to those of DMSO treatment control in each cell line and data analyses were performed using PRISM4 software. IC50 data are expressed as the mean ±SD (normal; n = 3).
as §1, with “2 p53-dependent inhibition of” for “1 PG3 inhibits”, “is only observed at specific concentrations. (A–J)” for “and growth in a p53-indepent manner. (A–E)”, “ZMC1, CP-313908, APR-246, Ellipticine, Nutalin-3a” for “PG3, PG3-Oc (Oc), obatoclax (Ob), prodigiosin (P)”
(§2) Cells were seeded in 96-well plates (6 × 10^3 cells/well). Cells were treated with different concentrations of compounds or dimethyl sulfoxide (DMSO) as a control for 72 hours. The cell viability was assessed by CellTiterGlo bioluminescent cell viability assay (Promega), following the manufacturer’s protocol. Bioluminescence imaging was measured using the IVIS imager. The percentage of cell viability (mean ± SEM) at each dose was calculated against the respective DMSO control. The IC50 values were determined from the sigmoidal dose-response curves using GraphPad Prism.

HCT116 (WT) = test: Cell viability assay (CellTiterGlo), HCT116 WT; type: cell-based, human; settings: for IC50: 72 h, CellTiterGlo
Method: as §1
as §1, with “2 p53-dependent inhibition of” for “1 PG3 inhibits”, “is only observed at specific concentrations. (A–J)” for “and growth in a p53-indepent manner. (A–E)”, “ZMC1, CP-313908, APR-246, Ellipticine, Nutalin-3a” for “PG3, PG3-Oc (Oc), obatoclax (Ob), prodigiosin (P)”
as §2

TOV-112D (R175H) = test: Cell viability assay (CellTiterGlo), TOV-112D; type: cell-based, human
Method: as §1
as §1, with “2 p53-dependent inhibition of” for “1 PG3 inhibits”, “is only observed at specific concentrations. (A–J)” for “and growth in a p53-indepent manner. (A–E)”, “ZMC1, CP-313908, APR-246, Ellipticine, Nutalin-3a” for “PG3, PG3-Oc (Oc), obatoclax (Ob), prodigiosin (P)”
as §2

[1] = tested on: SW480 cells carrying a p53-responsive luciferase reporter; test: p53-responsive reporter assay; type: cell-based, human; settings: 6 hour and 15 hour time points
Method: SW480 cells carrying a p53-responsive luciferase reporter were used for assay of functional restoration of mutant p53. Cells were seeded in 96-well plates (5 × 10^4 cells/well) and were treated with compounds indicated for 6 and 15 h, respectively. Then, D-luciferin was added to each well with final concentration 100 μg/mL, and cells were imaged by using an IVIS Imaging System to detect luciferase activity.
p53-mutant SW480 human colon cancer cells, stably expressing a p53-responsive luciferase reporter, were used to assay functional restoration p53 pathway-dependent transcription in mutant p53-expressing tumor cells. Cells were seeded in 96-well plates (5 × 10^4 cells/well) and were treated with small-molecule compounds for 6 and 15 h, respectively. Then, D-luciferin was added to each well at a final concentration of 100 μg/mL, and cells were imaged by using an IVIS Imaging System (Xenogen) to detect luciferase activity.

p53 protein = test: Western blot, p53 protein levels; type: cell-based, human; settings: for wild-type p53 protein level: HCT116, 24 h; for endogenous mutant p53 R273H protein level: HT29, 24 h; for endogenous mutant p53 R175H protein level: TOV-112D; for endogenous mutant p53 R175H protein level / exogenous mutant p53 R175H protein level: 24 h; for exogenous mutant p53 R175H protein level: engineered HCT116-R175H cells
Method: Cells were treated for 24 h with indicated compounds, concentrations and cell lines. Abbreviations: S.E.: Short exposure; L.E.: Long exposure.
(§3) After treatment, protein lysates were collected for Western blot analysis. A total of 15 μg of protein was used for SDS-PAGE. After primary and secondary antibody incubations, the signal was detected by a chemiluminescence detection kit, imaged by Syngene (Imgen Technologies). Antibodies for NAG-1 (GDF15) and P53 were from Santa Cruz Biotechnology; for caspase 8, cleaved caspase 8, caspase 9, caspase 3, cleavage PARP, eIF2α, p-eIF2α (Ser51), CHOP, ATF4, DR5, and PUMA were from Cell Signaling Technology. Noxa and p21 were from Calbiochem. Ran was from BD Biosciences.

PUMA = test: Western blot, PUMA induction; type: cell-based, human
Method: (§4) Figure 4 Activation of ATF4 and up-regulation of typical p53 target genes. (A–E) Western blot analysis of p53 protein levels and upregulation of ATF4, PUMA, DR5 and p21. Cells were treated for 24 h with indicated compounds, concentrations and cell lines. Abbreviations: S.E.: Short exposure; L.E.: Long exposure.
as §3

ATF4 = test: Western blot, ATF4 induction; type: cell-based, human; settings: five cancer cell lines, 24 h
Method: as §4, §3

HCT116 (R175H) = test: Cell viability assay (CellTiterGlo), HCT116 R175H; type: cell-based, human; settings: for IC50: 72 h, CellTiterGlo
Method: as §1
as §1, with “2 p53-dependent inhibition of” for “1 PG3 inhibits”, “is only observed at specific concentrations. (A–J)” for “and growth in a p53-indepent manner. (A–E)”, “ZMC1, CP-313908, APR-246, Ellipticine, Nutalin-3a” for “PG3, PG3-Oc (Oc), obatoclax (Ob), prodigiosin (P)”
as §2

p21 = test: Western blot, p21 induction; type: cell-based, human
Method: as §4, §3

[2] = tested on: HT29, TOV-112D, isogenic HCT116 cell lines, HFF-1 and MRC5; test: Cell viability assay, panel of cancer cell lines and normal cells (results in words); type: cell-based, human
Method: as §1, with “2 p53-dependent inhibition of” for “1 PG3 inhibits”, “is only observed at specific concentrations. (A–J)” for “and growth in a p53-indepent manner. (A–E)”, “ZMC1, CP-313908, APR-246, Ellipticine, Nutalin-3a” for “PG3, PG3-Oc (Oc), obatoclax (Ob), prodigiosin (P)”
as §2

DR5 = test: Western blot, DR5 induction; type: cell-based, human
Method: as §4, §3

[3] = tested on: HFF-1 (human foreskin fibroblast cell with wild-type p53); test: Cell viability assay (CellTiterGlo), HFF-1 normal cells; type: cell-based; settings: Homo sapiens, HFF-1; 72 h, CellTiterGlo, normal cells; read-out: IC50 values, HFF-l (WT)
Method: as §1
as §1, with “2 p53-dependent inhibition of” for “1 PG3 inhibits”, “is only observed at specific concentrations. (A–J)” for “and growth in a p53-indepent manner. (A–E)”, “ZMC1, CP-313908, APR-246, Ellipticine, Nutalin-3a” for “PG3, PG3-Oc (Oc), obatoclax (Ob), prodigiosin (P)”
as §2

HT29 (R273H) = test: Cell viability assay (CellTiterGlo), HT29; type: cell-based, human; settings: Homo sapiens, HT-29; 72 h, CellTiterGlo
Method: as §1
as §1, with “2 p53-dependent inhibition of” for “1 PG3 inhibits”, “is only observed at specific concentrations. (A–J)” for “and growth in a p53-indepent manner. (A–E)”, “ZMC1, CP-313908, APR-246, Ellipticine, Nutalin-3a” for “PG3, PG3-Oc (Oc), obatoclax (Ob), prodigiosin (P)”
as §2

[4] = tested on: GCN2, PKR, eIF2α, ATF4, CHOP in HT29 cells; test: Western blot, ISR kinases / eIF2α / ATF4 / CHOP; type: cell-based, human; settings: pre-treatment 2 hours, then ONC201 or PG3 for 24 hour
Method: Figure 7 PG3 induces upregulation of ATF4 through ISR via HRI. (A) HT29 cells were treated with PG3, GSK2606414, TG and ONC201 respectively, or co-treatment with PG3/GSK2606414, PG3/TG, and PG3/ONC201 for 15 h. (B) MEF, MEF^PERK−/− and MEF^GCN2−/− cells were treated with PG3 and ONC201 for 16 hours. (C) HT29 cells were transfected with siControl, siPKR, siHRI and siPKR/siHRI for 24 hours and then treated with PG3 for 16 hours. (D) HCT116 p53^−/− cells were transfected with siControl and siHRI for 24 hours and then treated with PG3 for 16 hours. (E) HCT116 p53^−/− cells were treated with PG3 and ONC201 for indicated times. (F) PANC1-sgCtrl, -sgHRI and -sgPKR cell lines were treated with PG3 and imipridones (ONC201, ONC206 and ONC212) for 16 hours. Western blot was performed using indicated antibodies. (G) Proposed model of PG3-induced cell apoptosis through HRI/ATF4/PUMA axis. Abbreviation: L.E.: Long exposure.
as §3
Supplementary Figure 2: ROS and NO are not responsible for PG3-induced HRI activation. (A, B) cells were pre-treated
with ZnPP, L-NMMA, SA and NAC for 2 hours respectively, and then ONC201 or PG3 was added to the medium for 24 hour treatment.
Western blot was performed using indicated antibodies.
(1 picture or pasted object on this page, not shown here)

## COCC1(CO)C(=O)C2CCN1CC2 (centres unmarked) [APR-246]
HCT116 (P53−/−)
  IC50: 11.3 µM
HCT116 (P53−/−); p53-null HCT116 vs HCT116 WT, 'at a concentration of 20 μM'
  fold more sensitive than the p53 wild-type HCT116 cell line: 2.9 fold
HCT116 (WT)
  IC50: 33 µM
TOV-112D (R175H); TOV-112D, 6.67 μM
  inhibition of proliferation: almost completely inhibited
[1]; up to 60 μM
  p53-responsive reporter activity: not able to activate the reporter
p53 protein
  wild-type p53 protein level: no effect
  endogenous mutant p53 R273H protein level: stabilizes
  endogenous mutant p53 R175H protein level: stabilizes
  exogenous mutant p53 R175H protein level: does not stabilize
PUMA; HCT116 (p53 wild-type), 24 h
  upregulation of PUMA: upregulates PUMA
ATF4
  upregulation of ATF4: does not upregulate ATF4
HCT116 (R175H)
  IC50: 8.87 µM
HCT116 (R175H); p53-mutated R175H HCT116 vs HCT116 WT, 'at a concentration of 20 μM'
  fold more sensitive than the p53 wild-type HCT116 cell line: 3.7 fold
p21; HCT116 (p53 wild-type), 24 h
  upregulation of p21: slightly induces p21
p21; TOV-112D, 24 h
  upregulation of p21: slightly induces p21
[2]; HFF-1 and MRC5, 0.08 μM
  inhibitory effects on normal cells: no detectable inhibitory effects
[2]; TOV-112D and HT29, 0.08 μM
  inhibition of proliferation: potently inhibited

## Cc1c2ccncc2c(C)c2c1[nH]c1ccccc12 [Ellipticine]
DR5; HCT116 (p53 wild-type), 24 h
  upregulation of DR5: slightly upregulates the short isomer of DR5
DR5; HT29, 24 h
  upregulation of DR5: slightly upregulates the short isomer of DR5
HCT116 (P53−/−); Homo sapiens, HCT-116
  IC50: 2.42 µM
HCT116 (WT); Homo sapiens, HCT-116
  IC50: 0.999 µM
HCT116 (WT); isogenic HCT116 cell lines, 1.11 μM
  selective toxicity among isogenic HCT116 cell lines: selective toxicity towards the p53-wild-type cell line
TOV-112D (R175H); Homo sapiens, TOV112D, 72 h, CellTiterGlo, read-out: IC50 values, TOV-1120 (R175H) (converted)
  IC50: 19.3 µM
[1]; 10 μM
  p53-responsive reporter activity: activates the reporter activity
p53 protein
  wild-type p53 protein level: potently stabilizes
  endogenous mutant p53 R273H protein level: stabilized
  endogenous mutant p53 R175H protein level: mildly downregulates
  exogenous mutant p53 R175H protein level: upregulates
[3]
  IC50: 6.07 µM
PUMA; HCT116 (p53 wild-type), 24 h
  upregulation of PUMA: mildly upregulates PUMA
PUMA; HT29, 24 h
  upregulation of PUMA: does not upregulate PUMA
PUMA; TOV-112D, 24 h
  upregulation of PUMA: does not upregulate PUMA
ATF4
  upregulation of ATF4: do not upregulate ATF4
HCT116 (R175H); Homo sapiens, HCT-116
  IC50: 1.79 µM
HT29 (R273H)
  IC50: 0.713 µM
p21; HCT116 (p53 wild-type), 24 h
  upregulation of p21: significantly upregulates p21
p21; HCT116 p53-R175H, 24 h
  upregulation of p21: mildly upregulates p21
p21; HCT116 p53–/–, 24 h
  upregulation of p21: slightly upregulates p21
p21; HT29, 24 h
  upregulation of p21: slightly upregulates p21
p21; TOV-112D, 24 h
  upregulation of p21: mildly upregulates p21
[2]; HFF-1 and MRC5, 0.04 to 3.33 μM
  toxicity to normal cells: no significant toxicity
[2]; HT29 and TOV-112D, 0.04 to 3.33 μM
  inhibition of proliferation: selectively inhibits the proliferation

## [H]/N=C(/NC)NCCC[C@H](N)C(=O)O [L-NMMA, N-Methyl-L-arginine acetate]
[4]
  effect on PG3- or ONC201-induced upregulation of ATF4: do not attenuate or block

## CC(=O)N[C@@H](CS)C(=O)O [NAC, N-acetylcysteine]
[4]
  effect on PG3- or ONC201-induced upregulation of ATF4: do not attenuate or block

## COc1ccc(C2=N[C@@H](c3ccc(Cl)cc3)[C@@H](c3ccc(Cl)cc3)N2C(=O)N2CCNC(=O)C2)c(OC(C)C)c1 [Nutlin-3a]
DR5; five cell lines, 24 h
  upregulation of DR5: does not upregulate DR5
HCT116 (WT); p53 wild-type HCT116, 6.67 μM
  inhibition of viability: selectively inhibits the viability
p53 protein
  wild-type p53 protein level: stabilizes
  endogenous mutant p53 R273H protein level: no effects
  endogenous mutant p53 R175H protein level: no effects
  exogenous mutant p53 R175H protein level: no effects
PUMA; HCT116 (p53 wild-type), 24 h
  upregulation of PUMA: significantly upregulates
ATF4
  upregulation of ATF4: do not upregulate ATF4
p21; HCT116 (p53 wild-type), 24 h
  upregulation of p21: significantly upregulates
[2]; HT29 and TOV-112D
  inhibitory activity: shows inhibitory activity
[2]; p53-null and p53 R175H HCT116, 6.67 μM
  effect on viability: no significant effects

## C=CC1=C(C)c2cc3[n-]c(cc4nc(cc5[n-]c(cc1n2)c(C)c5C=C)C(C)=C4CCC(=O)O)c(CCC(=O)O)c3C.[Zn+2] [ZnPP, Zinc protoporphyrin]
[4]
  effect on PG3- or ONC201-induced upregulation of ATF4: do not attenuate or block
